Reference: patent US20230174938A1, “METHODS AND COMPOSITIONS FOR GENERATING HUMAN ERYTHROID PROGENITOR CELLS” (Trailhead Biosystems Inc., priority 2021, published 2023)

Columns and labels:
[1] = tested on: GATA1 bipotential progenitor (MEP progenitor) from human cord blood CD34+ cells; assay: HD-DoE 12-factor experiment optimized for maximum expression of HBA1 (stage 2); type: cell-based; settings: 12-factor model optimized for maximum HBA1 expression; 3 days after stage 1
Method: To engineer the stage 2 media, first CD34+ cells from human cord blood cells were cultured for 5 days in stage 1 media (Table 1), which converts hematopoietic stem cells to a GATA1 bipotential progenitor (MEP progenitor). This progenitor has the potential to differentiate to erythroid and megakaryocyte lineages. To further guide the differentiation of GATA1 bipotential progenitor, an additional HD-DoE experiment was performed. […] The basis of this was a 12-factor HD-DoE experiment with focus on differentiation of cells toward the erythroid lineage for an additional 3 days after termination of stage 1 treatment.
To test the effectors, 96 different combinations of effectors generated using Design-of-Experiments compression through D-optimality were robotically prepared. The effector combinations were prepared in a basal media and were subsequently added to the cells, which were then allowed to differentiate. Three days later RNA extraction was performed, and gene expression was obtained using quantitative PCR analysis. The data were normalized and modeled using partial least squares regression analysis to the effector design, resulting in the generation of gene-specific models, which after model tuning for maximal Q2 predictive power, provided explanation of the effectors ability to control the expression of individual genes, combinatorically, and individually. Solutions within the tested space could then be explored to address desirability.
This model was derived from initial testing of twelve factors including: HB-EGF, Optiferrin, SR1, knockout serum, ibuprofen, GM-CSF, holo-transferrin, EPO, eltrombopag, Neuregulin 1, THI0019 and AICAR.

[2] = tested on: erythroid progenitors from GATA1+ MEP cells; assay: Factor criticality analysis (dynamic profile), stage 2 recipe; type: cell-based, human; design: unit not given here
Method: (§1) To assess the impact of the elimination of each validated factor identified for the stage 1 and 2 recipes as described in Example 1, dynamic profile analysis was used and compared the expression level of genes of interest in absence of each finalized factor while others are present.
In the stage 2 recipe, each of the five finalized factors was removed while the other four factors remained present and the expression levels of GATA1, HBA1, GYPA (CD235) and TFRC were assessed compared to the presence of all five factors. When EPO was removed, the values of GATA1 decreased from 1386 to 736, the values of HBA1 changed from 700 to 285, the values of GYPA decreased from 345 to 61 and the values of TFRC dropped from 2943 to 898. All changes represent a significant loss of expression of a desired gene.

[3] = tested on: CD34+ population of cells isolated from cord blood; assay: HD-DoE 8-factor experiment optimized for maximum expression of GATA1 (stage 1); type: cell-based, human; settings: for factor contribution: 8-factor model optimized for maximum GATA1 expression, 3-day treatment
Method: The effector combinations were prepared in a basal media and were subsequently added to the cells, which were then allowed to differentiate. […] Solutions within the tested space could then be explored to address desirability.

[4] = tested on: MEP progenitor from CD34+ HSCs; assay: Factor criticality analysis (dynamic profile), stage 1 recipe; type: cell-based, human; design: unit not given here
Method: as §1
In the stage 1 recipe, each of the five finalized factors was removed while the other four factors remained present and the expression levels of GATA2, GATA1, CD36 and TFRC were assessed compared to the presence of all five factors.

[5] = tested on: CD34 cells; assay: HD-DoE 6-factor experiment optimized for maximum expression of GATA1; type: cell-based, human
Method: To test whether EPO or other commonly used cytokines are required for GATA1 induction, we conducted experiments with 6 factors in a range of concentrations. On this experiment CD34 cells were thawed and kept overnight in media containing SCF 10 ng/mL. On the next day, 48 different combinations of effectors were added to the cells, and SCF 5 ng/mL was kept in all the wells.

[6] = tested on: HBA expression; assay: Refinement of stage 2 recipe: HBA expression modelling and cell number; type: cell-based, human; settings: higher concentration: holo-transferrin 600 ug/mL, EPO 4 U/mL; or supplement added
Method: In order to refine the stage 2 recipe, more modelling experiments were conducted using the same factors as the stage 2 recipe but testing different concentrations of critical factors such as EPO and holo-transferrin. Additionally, because lipid inputs are critical for RBC differentiation, a commercial cholesterol supplement (Sigma) was tested.

[7] = named factor removed, other four present

Molecule: NC(=O)c1ncn([C@@H]2O[C@H](CO)[C@@H](O)[C@H]2O)c1N [AICAR, reference compound]
- factor contribution [1]: 9
- GYPA expression ([2]; all five factors present): 337
- HBA1 expression ([2]; all five factors present): 689
- GYPA expression [2, 7]: 256
- HBA1 expression [2, 7]: 569

Molecule: C=C1C(=O)O[C@@H]2C[C@@]3(C)CCC[C@H](C)C3=C[C@H]12 [Alantolactone]
- factor contribution [3]: 8
- impact on GATA1 expression ([3]; 8-factor model, GATA1): supportive of GATA1 induction
- GATA1 expression ([4]; all five factors present): 510
- GATA1 expression [4, 7]: 460

Molecule: NC1(c2ccc(-c3nc4ccn5c(=O)[nH]nc5c4cc3-c3ccccc3)cc2)CCC1 [MK2206]
- factor contribution [3]: 17
- GATA1 expression ([4]; all five factors present): 510
- GATA1 expression [4, 7]: 400

Molecule: CC(C)n1cnc2c(NCCc3ccc(O)cc3)nc(-c3csc4ccccc34)nc21 [SR1]
- factor contribution [3]: 6
- factor contribution [1]: 7
- GATA1 expression ([4]; all five factors present): 510
- TFRC expression ([4]; all five factors present): 970
- GATA1 expression [4, 7]: 410
- TFRC expression [4, 7]: 570
- HBA1 expression ([2]; all five factors present): 700
- HBA1 expression [2, 7]: 597

Molecule: EPO: EPOR agonist, erythropoietin
- requirement for GATA1 induction ([5]; 6-factor model): not required for GATA1 induction
- factor contribution [1]: 31
- GATA1 expression ([2]; all five factors present): 1386
- GYPA expression ([2]; all five factors present): 345
- HBA1 expression ([2]; all five factors present): 700
- TFRC expression ([2]; all five factors present): 2943
- GATA1 expression [2, 7]: 736
- GYPA expression [2, 7]: 61
- HBA1 expression [2, 7]: 285
- TFRC expression [2, 7]: 898
- HBA expression [6]: higher HBA expression

Molecule: holotransferrin: Iron source
- GATA1 expression ([2]; all five factors present): 1370
- GYPA expression ([2]; all five factors present): 330
- HBA1 expression ([2]; all five factors present): 688
- TFRC expression ([2]; all five factors present): 2883
- GATA1 expression [2, 7]: 967
- GYPA expression [2, 7]: 170
- HBA1 expression [2, 7]: 500
- TFRC expression [2, 7]: 1703
- HBA expression [6]: higher HBA expression

B1: Activin A: a member of the TGFβ family (protein, UniProt P08476 311-426, looked up)
Inhibin beta A chain: GLECDGKVNICCKKQFFVSFKDIGWNDWIIAPSGYHANYCEGECPSHIAGTSGSSLSFHSTVINHYRMRGHSPFANLKSCCVPTKLRPMSMLYYDDGQNIIKKDIQNMIVEECGCS
- factor contribution ([5]; 6-factor model optimized for maximum GATA1 expression, SCF 5 ng/mL in all wells): 33
